# Where “and” joins values, the source holds several entries; their conditions need not be identical. Equal entries are not always repeated. Inconclusive results and toxic doses are left out.
# System: CD2F1 mice, L1210 leukemia ip, survival T/C
# Test: NCI In Vivo Anticancer Drug Screen. Data for tumor model L1210 Leukemia (intraperitoneal) in CD2F1 (CDF1) mice
# Conditions: higher = longer survival
# How it was run: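 Ratio T/C, where T is the treated-group value and C the vehicle-dosed control value, from mice implanted with a transplantable tumor.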
# [1] = endpoint: mean survival time, dose: 100.0 mg/kg/injection, schedule: Q04DX003 (ip), vehicle: saline with Tween-80
# [2] = endpoint: mean survival time, dose: 200.0 mg/kg/injection, schedule: Q04DX003 (ip), vehicle: saline with Tween-80
# [3] = endpoint: mean survival time, dose: 400.0 mg/kg/injection, schedule: Q04DX003 (ip), vehicle: saline with Tween-80
# [4] = endpoint: mean survival time, dose: 100.0 mg/kg/injection, schedule: Q04DX003 (ip), vehicle: acetone
# [5] = endpoint: mean survival time, dose: 200.0 mg/kg/injection, schedule: Q04DX003 (ip), vehicle: acetone
# [6] = endpoint: mean survival time, dose: 400.0 mg/kg/injection, schedule: Q04DX003 (ip), vehicle: acetone
# [7] = endpoint: mean survival time, dose: 25.0 mg/kg/injection, schedule: Q04DX002 (ip), vehicle: saline with Tween-80
# [8] = endpoint: mean survival time, dose: 50.0 mg/kg/injection, schedule: Q04DX002 (ip), vehicle: saline with Tween-80
# [9] = endpoint: mean survival time, dose: 100.0 mg/kg/injection, schedule: Q04DX002 (ip), vehicle: saline with Tween-80
# [10] = endpoint: mean survival time, dose: 100.0 mg/kg/injection, schedule: Q01DX009 (ip), vehicle: saline with Tween-80
# [11] = endpoint: mean survival time, dose: 200.0 mg/kg/injection, schedule: Q01DX009 (ip), vehicle: saline with Tween-80
# [12] = endpoint: mean survival time, dose: 25.0 mg/kg/injection, schedule: Q01DX009 (ip), vehicle: saline
# [13] = endpoint: mean survival time, dose: 400.0 mg/kg/injection, schedule: Q01DX009 (ip), vehicle: saline with Tween-80
# [14] = endpoint: mean survival time, dose: 100.0 mg/kg/injection, schedule: Q01DX001 (ip), vehicle: saline with Tween-80
# [15] = endpoint: mean survival time, dose: 200.0 mg/kg/injection, schedule: Q04DX002 (ip), vehicle: saline with Tween-80
# [16] = endpoint: mean survival time, dose: 400.0 mg/kg/injection, schedule: Q04DX002 (ip), vehicle: saline with Tween-80
smiles,measurement,setting,value
COc1cccc2c1C(=O)c1c(O)c3c(c(O)c1C2=O)C[C@@](O)(C(=O)CN1CCN(C)CC1)C[C@@H]3OC1CC(N)C(O)C(C)O1 (stereo partly specified),T/C,"endpoint: mean survival time, dose: 6.25 mg/kg/injection, schedule: Q04DX003 (ip), vehicle: water",88 % of control
same,T/C,"endpoint: mean survival time, dose: 12.5 mg/kg/injection, schedule: Q04DX003 (ip), vehicle: water",90 % of control
same,T/C,"endpoint: mean survival time, dose: 25.0 mg/kg/injection, schedule: Q04DX003 (ip), vehicle: water",90 % of control
same,T/C,"endpoint: mean survival time, dose: 50.0 mg/kg/injection, schedule: Q04DX003 (ip), vehicle: water",91 % of control
same,T/C,"endpoint: mean survival time, dose: 100.0 mg/kg/injection, schedule: Q04DX003 (ip), vehicle: water",86 % of control
CC1(C)COC(C)(C(=O)O)OC1,T/C,[1],98 % of control
same,T/C,[2],98 % of control
same,T/C,[3],96 % of control
C=C(Cl)CSCCCS,T/C,[4],111 % of control
same,T/C,[5],116 % of control
same,T/C,[6],122 % of control
CCCC(C(=O)OCC)C1=NC(C)(C)CC(C)O1 (stereo unspecified),T/C,[4],100 % of control
same,T/C,[5],102 % of control
same,T/C,[6],94 % of control
c1ccc(-c2nnc(-c3ccccn3)o2)nc1,T/C,[7],102 % of control
same,T/C,[8],98 % of control
same,T/C,[9],107 % of control
O=C(NC/C=C/Br)NC1CCCc2ccccc21 (stereo unspecified),T/C,"endpoint: mean survival time, dose: 100.0 mg/kg/injection, schedule: Q04DX003 (ip), vehicle: other",96 % of control
same,T/C,"endpoint: mean survival time, dose: 200.0 mg/kg/injection, schedule: Q04DX003 (ip), vehicle: other",102 % of control
same,T/C,"endpoint: mean survival time, dose: 400.0 mg/kg/injection, schedule: Q04DX003 (ip), vehicle: other",96 % of control
ClC1=NC(Cl)(Cl)C(Cl)=C1Cl,T/C,"endpoint: mean survival time, dose: 6.25 mg/kg/injection, schedule: Q04DX002 (ip), vehicle: saline",95 % of control
same,T/C,"endpoint: mean survival time, dose: 12.5 mg/kg/injection, schedule: Q04DX002 (ip), vehicle: saline",95 % of control
same,T/C,"endpoint: mean survival time, dose: 25.0 mg/kg/injection, schedule: Q04DX002 (ip), vehicle: saline",98 % of control
O=C(NC(CSCc1ccccc1)C(=O)O)OCc1ccccc1 (stereo unspecified),T/C,"endpoint: mean survival time, dose: 50.0 mg/kg/injection, schedule: Q01DX009 (ip), vehicle: saline with Tween-80",98 % of control
same,T/C,[10],94 % of control
same,T/C,[1],93 % of control
same,T/C,[11],103 % of control
same,T/C,[2],101 % of control
Cc1ccc(/C(O)=C2/CC(C)(C)c3ccccc3C2=O)cc1,T/C,[4],92 % of control
same,T/C,[5],92 % of control
same,T/C,[6],88 % of control
O=C(/C=C/C(=O)OCCCl)OCCCl,T/C,[1],104 % of control
same,T/C,[2],96 % of control
CN(C)C=O,T/C,[12],101 % of control
same,T/C,"endpoint: mean survival time, dose: 50.0 mg/kg/injection, schedule: Q01DX009 (ip), vehicle: saline",97 % of control
same,T/C,"endpoint: mean survival time, dose: 100.0 mg/kg/injection, schedule: Q01DX009 (ip), vehicle: saline",101 % of control
same,T/C,"endpoint: mean survival time, dose: 100.0 mg/kg/injection, schedule: Q04DX002 (ip), vehicle: saline",111 % of control
same,T/C,"endpoint: mean survival time, dose: 200.0 mg/kg/injection, schedule: Q01DX009 (ip), vehicle: saline",100 % of control
same,T/C,"endpoint: mean survival time, dose: 200.0 mg/kg/injection, schedule: Q04DX002 (ip), vehicle: saline",96 % of control
same,T/C,"endpoint: mean survival time, dose: 400.0 mg/kg/injection, schedule: Q01DX009 (ip), vehicle: saline",109 % of control
same,T/C,"endpoint: mean survival time, dose: 400.0 mg/kg/injection, schedule: Q04DX002 (ip), vehicle: saline",111 % of control
same,T/C,"endpoint: mean survival time, dose: 800.0 mg/kg/injection, schedule: Q01DX009 (ip), vehicle: saline",106 % of control
same,T/C,"endpoint: mean survival time, dose: 1600.0 mg/kg/injection, schedule: Q01DX009 (ip), vehicle: saline",105 % of control
CN(Cc1ccc(C#N)cc1)N=Nc1ccc(C(=O)O)cc1,T/C,"endpoint: mean survival time, dose: 25.0 mg/kg/injection, schedule: Q01DX009 (ip), vehicle: other",106 % of control
same,T/C,"endpoint: mean survival time, dose: 50.0 mg/kg/injection, schedule: Q01DX009 (ip), vehicle: other",87 % of control
same,T/C,"endpoint: mean survival time, dose: 100.0 mg/kg/injection, schedule: Q01DX009 (ip), vehicle: other",106 % of control
same,T/C,"endpoint: mean survival time, dose: 200.0 mg/kg/injection, schedule: Q01DX009 (ip), vehicle: other",102 % of control
same,T/C,"endpoint: mean survival time, dose: 400.0 mg/kg/injection, schedule: Q01DX009 (ip), vehicle: other",120 % of control
CCCCCCCCCCCCCCCCCC[N+](CCO)(CCO)Cc1ccc(C[N+](CCO)(CCO)CCCCCCCCCCCCCCCCCC)cc1,T/C,"endpoint: mean survival time, dose: 12.5 mg/kg/injection, schedule: Q04DX002 (ip), vehicle: saline with Tween-80",101 % of control
same,T/C,[7],101 % of control
same,T/C,[8],89 % of control
Cc1ccc([N+](=O)[O-])cc1NC(=O)Oc1ccc(Cl)cc1,T/C,[10],98 % of control
same,T/C,[1],92 % of control
same,T/C,[11],98 % of control
same,T/C,[2],95 % of control
same,T/C,[13],91 % of control
same,T/C,[3],88 % of control
O=c1cc(-c2ccccc2)nc2c(Cl)cc(Cl)cn12,T/C,[14],96 % of control
same,T/C,"endpoint: mean survival time, dose: 200.0 mg/kg/injection, schedule: Q01DX001 (ip), vehicle: saline with Tween-80",93 % of control
same,T/C,"endpoint: mean survival time, dose: 400.0 mg/kg/injection, schedule: Q01DX001 (ip), vehicle: saline with Tween-80",96 % of control
CN1CCCC(OC(=O)C(c2ccccc2)C2(O)CCCCC2)C1 (stereo unspecified),T/C,"endpoint: mean survival time, dose: 75.0 mg/kg/injection, schedule: Q01DX001 (ip), vehicle: saline",101 % of control
CCCCN=C(C(=NCCCC)N(CCCC)CCCC)N(CCCC)CCCC,T/C,[9],101 % of control
same,T/C,[15],89 % of control
same,T/C,[16],98 % of control
Nc1n[nH]c2ccccc12,T/C,"endpoint: median survival time, dose: 25.0 mg/kg/injection, schedule: Q01DX009 (ip), vehicle: acid diluted with saline",101 % of control and 103 % of control and 105 % of control
same,T/C,"endpoint: median survival time, dose: 50.0 mg/kg/injection, schedule: Q01DX009 (ip), vehicle: acid diluted with saline",101 % of control and 108 % of control and 111 % of control
same,T/C,"endpoint: median survival time, dose: 100.0 mg/kg/injection, schedule: Q01DX009 (ip), vehicle: acid diluted with saline",107 % of control
same,T/C,"endpoint: median survival time, dose: 200.0 mg/kg/injection, schedule: Q01DX009 (ip), vehicle: acid diluted with saline",154 % of control and 158 % of control
same,T/C,"endpoint: median survival time, dose: 400.0 mg/kg/injection, schedule: Q01DX009 (ip), vehicle: acid diluted with saline",158 % of control
O=C1C=CC(=Nc2ccc(Cl)cc2)O1,T/C,[1],101 % of control
same,T/C,[3],97 % of control
COC(=O)c1cncc(C(=O)OC)c1,T/C,[10],94 % of control
same,T/C,[11],92 % of control
same,T/C,[13],90 % of control
CCOC(=O)/C=C/C(=O)O.[Cu+2],T/C,"endpoint: mean survival time, dose: 1.56 mg/kg/injection, schedule: Q04DX003 (ip), vehicle: saline",108 % of control
same,T/C,"endpoint: mean survival time, dose: 3.12 mg/kg/injection, schedule: Q04DX003 (ip), vehicle: saline",108 % of control
same,T/C,"endpoint: mean survival time, dose: 6.25 mg/kg/injection, schedule: Q04DX003 (ip), vehicle: saline",104 % of control
COc1ccc2c(c1)N(CC(C)C[N+](C)(C)CCCCCCCCCC[N+](C)(C)CC(C)CN1c3ccccc3Sc3ccc(OC)cc31)c1ccccc1S2 (stereo unspecified),T/C,"endpoint: mean survival time, dose: 6.25 mg/kg/injection, schedule: Q01DX009 (ip), vehicle: saline",100 % of control
same,T/C,"endpoint: mean survival time, dose: 12.5 mg/kg/injection, schedule: Q01DX009 (ip), vehicle: saline",92 % of control
same,T/C,[12],106 % of control
CC(C)(C)/C(=N\Nc1ccc([N+](=O)[O-])cc1[N+](=O)[O-])c1ccccc1,T/C,"endpoint: mean survival time, dose: 25.0 mg/kg/injection, schedule: Q01DX001 (ip), vehicle: saline with Tween-80",97 % of control
same,T/C,"endpoint: mean survival time, dose: 50.0 mg/kg/injection, schedule: Q01DX001 (ip), vehicle: saline with Tween-80",95 % of control
same,T/C,[14],97 % of control
Nc1ncnc2c1ncn2C1OC2COP(=O)(O)OC2C1OCc1ccccc1 (stereo unspecified),T/C,"endpoint: mean survival time, dose: 100.0 mg/kg/injection, schedule: Q01DX005 (ip), vehicle: saline",103 % of control
same,T/C,"endpoint: mean survival time, dose: 200.0 mg/kg/injection, schedule: Q01DX005 (ip), vehicle: saline",94 % of control
COC(=O)c1ccc(-n2cc(C(=O)OC)c([N+]#N)c2[O-])cc1,T/C,[9],107 % of control
same,T/C,[15],88 % of control
same,T/C,[2],93 % of control
same,T/C,[16],107 % of control
same,T/C,[3],93 % of control
CN(C)C=Nc1cnc2ccccc2c1,T/C,[1],95 % of control
same,T/C,[2],95 % of control
same,T/C,[3],96 % of control
CC1=CC(CO)C2C(=O)NC(=O)C2C1C (stereo unspecified),T/C,"endpoint: mean survival time, dose: 100.0 mg/kg/injection, schedule: Q01DX001 (ip), vehicle: Klucel (hydroxypropylcellulose) (HPC)",98 % of control
same,T/C,"endpoint: mean survival time, dose: 200.0 mg/kg/injection, schedule: Q01DX001 (ip), vehicle: Klucel (hydroxypropylcellulose) (HPC)",105 % of control
same,T/C,"endpoint: mean survival time, dose: 400.0 mg/kg/injection, schedule: Q01DX001 (ip), vehicle: Klucel (hydroxypropylcellulose) (HPC)",105 % of control
